Measurements from ChEMBL document CHEMBL1159333, “Halogenated metabolites from the new Okinawan red alga Laurencia yonaguniensis” (J Nat Prod, 2002).
Activity calls are given as the source filed them. The rule behind the calls is not given here.

How the values were obtained:
Escherichia coli = assay: Antibacterial activity against Escherichia coli at 100 ug/disk after 24 hrs by paper disk diffusion assay; type: functional, organism-based
[1] = Toxicity against Artemia salina nauplii after 24 hrs; type: organism-based; details: in vivo
Halomonas aquamarina = assay: Antibacterial activity against Alcaligenes aquamarinus at 100 ug/disk after 24 hrs by paper disk diffusion assay; type: functional, organism-based; details: Vreelandella aquamarina

Structure (SMILES) | Activity (Escherichia coli) | LC50 at 24 h [1] [µM] | Activity (Halomonas aquamarina)
C#C/C=C\C[C@@H]1O[C@H](/C=C/C)C/C=C\C[C@@H]1Cl | inactive | 467 | inactive
CC1(C)[C@H](Br)C[C@H](O)[C@]1(C)[C@@]1(O)CC[C@]2(C)[C@@H](Br)CC[C@@](C)(O)[C@@]2(O)C1 [NEOIRIETETRAOL] | Active | 40.1 | Active
